Tests used:
HIV [1] = assay: Anti-HIV activity (MT-4 cells, MTT); type: cell-based; settings: Human immunodeficiency virus 1, MT4, 96 h, cultured 4 days
Procedure, shortened: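 MT-4 cells (2.5×10^5 cells/mL) mixed with serial dilutions of test sample and HIV, cultured 4 days in CO2 incubator. MTT added for 1 h, cells lysed, absorbance read at 560 nm and 690 nm.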

[2] = test system: HIV mutant strain 1 (E138K/G140S/Q148H/N155H); assay: Resistance evaluation test (HeLa-CD4 reporter), mutant strain 1; type: cell-based; settings: FC=EC50 of mutant strain/EC50 of wild strain, HeLa-CD4 cells
Description: (§1) Serial dilutions of a test sample were prepared in a96-well microplate (50 μL/well). 2.5×10^5 cells/mL of a HeLa-CD4 cell suspension was dispensed at 100 μL/well to the plate containing the test sample. Then, an HIV virus solution (wild strain and mutant strain) was dispensed at 50 μL/well. The plate was mixed with a plate mixer and cultured for 3 days in a CO2 incubator. The culture supernatant in each well was removed by suction. A cell lysis buffer in a reporter assay kit was dispensed at 100 μL/well, and the plate was frozen in a freezer (−80° C.). The plate frozen in a freezer was thawed at room temperature, then mixed with a plate mixer, and centrifuged at 1,200 rpm for 5 minutes. The supernatant of each well was dispensed at 20 μL/well to a 96-well microplate (BLACK). A chemiluminescent reagent in the reporter assay kit was dispensed at 100 μL/well and reacted at room temperature for approximately 1 hour. Then, luminescence intensity was measured using MicroBeta TRILUX. […] FC=EC50 of mutant strain/EC50 of wild strain (Results) FC for the mutant strain 1 (E138K/G140S/Q148H/N155H) and FC for the mutant strain 2 (E92Q/E138T/G140S/Q148H) are shown in the table.

[3] = test system: HIV mutant strain 2 (E92Q/E138T/G140S/Q148H); assay: Resistance evaluation test (HeLa-CD4 reporter), mutant strain 2; type: cell-based; settings: FC=EC50 of mutant strain/EC50 of wild strain, HeLa-CD4 cells
Description: as §1

[4] = Clearance evaluation test; type: in vivo; settings: rat, plasma, 1 umol/kg, rats, intravenous 1 μmol/kg
Excerpt: Experimental Material and Method (1) Animals used: rats were used. (2) Rearing conditions: the rats were allowed to freely take solid feed and sterilized tap water. (3) Dose and grouping setting: a predetermined dose was intravenously administered. Groups were set as follows: Intravenous administration: 1 μmol/kg (n=2) (4) Preparation of dosing solution: the test sample was solubilized using a solvent of dimethyl sulfoxide/propylene glycol=1/1 and administered. (5) Administration method: the test sample was administered to the tail vein through a syringe with an injection needle. (6) Evaluation item: blood was collected over time, and the concentration of the compound of the present invention in plasma was measured using LC/MS/MS. (7) Statistical analysis: total body clearance (CLtot) and elimination half-life (t½) were calculated as to change in the concentration of the compound of the present invention in plasma by the moment analysis method.

Metabolic stability test = type: in vitro ADME, human; parameters: key: % remaining vs amount at 0 min (=100%)
Description: Commercially available pooled human liver microsomes were reacted with the compound of the present invention for a certain time. A residual rate was calculated by the comparison between the reacted sample and an unreacted sample to evaluate the degree at which the compound of the present invention is metabolized in the liver. A reaction was performed (oxidative reaction) at 37° C. for 0 minutes or 30 minutes in the presence of 1 mmol/L NADPH in 0.2 mL of a buffer (50 mmol/L Tris-HCl pH 7.4, 150 mmol/L potassium chloride, 10 mmol/L magnesium chloride) containing 0.5 mg protein/mL of human liver microsomes. After the reaction, 50 μL of the reaction solution was added to 100 μL of a solution of methanol/acetonitrile=1/1 (v/v) and mixed, and the mixture was centrifuged at 3000 rpm for 15 minutes. The compound of the present invention in the centrifugation supernatant was quantified by LC/MS/MS or solid-phase extraction (SPE)/MS. The amount of the compound of the present invention remaining after the reaction was calculated with the amount of the compound at 0 minutes of the reaction defined as 100%.

HIV [5] = assay: Anti-HIV activity evaluation test using PBMC of healthy humans; type: cell-based; settings: Human immunodeficiency virus 1, 96 h, read-out: 90% HIV inhibitory concentration (EC90); PHA-stimulated PBMC, 4 days, reverse transcriptase activity
Description: Serial dilutions of a test sample were prepared in a 96-well microplate (50 μL/well). 1.0×10^5/well of PBMC stimulated with Phytohemagglutinin (PHA) and an HIV viral solution were mixed in the required number of wells and the mixture was reacted at 37° C. for 1 hour. After the reaction, the cell suspension was centrifuged and the supernatant was discarded, and the infected cells were dispersed in the culture medium in the required number of wells at 150 μL/well. The obtained medium was dispensed at 150 μL/well to a 96-well microplate containing the test sample. The plate was mixed with a plate mixer and cultured for 4 days in a CO2 incubator. The reverse transcriptase activity in the culture medium was measured.

HIV [6] = assay: Anti-HIV activity evaluation test in the presence of human serum protein (MT-4 cells); type: cell-based; settings: PS=4×(EC50 in 25% human serum protein/EC50 in absence), 100% extrapolation value
Description: Serial dilutions of a test sample were prepared in a 96-well microplate (50 μL/well). A human serum protein solution (50% human serum protein concentration) was dispensed at 100 μL/well into a 96-well microplate containing the test sample, and allowed to be left still at room temperature for 1 hour. For the plate of serum absence, the culture medium was dispensed at 100 μL/well. 3.0×10^5/well of MT-4 cells and 3 μL/well of an HIV viral solution were mixed in an amount of the required number of wells, and the mixture was reacted at 37° C. for 1 hour. After the reaction, the cell suspension was centrifuged and the supernatant was discarded, and the infected cells were dispersed in the culture medium in an amount of the required number of wells at 50 μL/well, and dispensed at 50 μL/well to a 96-well microplate containing the test sample and human serum protein (final concentration of the human serum protein: 25%). The plate was mixed with a plate mixer and cultured for 4 days in a CO2 incubator. An MTT (3-(4,5-dimethylthiazol-2-yl)-2,5-diphenyltetrazolium bromide) solution was dispensed at 30 μL/well. The plate was reacted for 1 hour in a CO2 incubator. 150 μL of the supernatant was removed from each well so as not to take up the cells. […] The absorbance of the mixed plate was measured at two wavelengths of 560 nm and 690 nm using a microplate reader. […]

[7] = molecular target: Voltage gated sodium channel (Nav 1.5 channel) (Homo sapiens, UniProt Q14524); settings: pH 7.4
Chain of Voltage gated sodium channel (Nav 1.5 channel) (Q14524 whole entry): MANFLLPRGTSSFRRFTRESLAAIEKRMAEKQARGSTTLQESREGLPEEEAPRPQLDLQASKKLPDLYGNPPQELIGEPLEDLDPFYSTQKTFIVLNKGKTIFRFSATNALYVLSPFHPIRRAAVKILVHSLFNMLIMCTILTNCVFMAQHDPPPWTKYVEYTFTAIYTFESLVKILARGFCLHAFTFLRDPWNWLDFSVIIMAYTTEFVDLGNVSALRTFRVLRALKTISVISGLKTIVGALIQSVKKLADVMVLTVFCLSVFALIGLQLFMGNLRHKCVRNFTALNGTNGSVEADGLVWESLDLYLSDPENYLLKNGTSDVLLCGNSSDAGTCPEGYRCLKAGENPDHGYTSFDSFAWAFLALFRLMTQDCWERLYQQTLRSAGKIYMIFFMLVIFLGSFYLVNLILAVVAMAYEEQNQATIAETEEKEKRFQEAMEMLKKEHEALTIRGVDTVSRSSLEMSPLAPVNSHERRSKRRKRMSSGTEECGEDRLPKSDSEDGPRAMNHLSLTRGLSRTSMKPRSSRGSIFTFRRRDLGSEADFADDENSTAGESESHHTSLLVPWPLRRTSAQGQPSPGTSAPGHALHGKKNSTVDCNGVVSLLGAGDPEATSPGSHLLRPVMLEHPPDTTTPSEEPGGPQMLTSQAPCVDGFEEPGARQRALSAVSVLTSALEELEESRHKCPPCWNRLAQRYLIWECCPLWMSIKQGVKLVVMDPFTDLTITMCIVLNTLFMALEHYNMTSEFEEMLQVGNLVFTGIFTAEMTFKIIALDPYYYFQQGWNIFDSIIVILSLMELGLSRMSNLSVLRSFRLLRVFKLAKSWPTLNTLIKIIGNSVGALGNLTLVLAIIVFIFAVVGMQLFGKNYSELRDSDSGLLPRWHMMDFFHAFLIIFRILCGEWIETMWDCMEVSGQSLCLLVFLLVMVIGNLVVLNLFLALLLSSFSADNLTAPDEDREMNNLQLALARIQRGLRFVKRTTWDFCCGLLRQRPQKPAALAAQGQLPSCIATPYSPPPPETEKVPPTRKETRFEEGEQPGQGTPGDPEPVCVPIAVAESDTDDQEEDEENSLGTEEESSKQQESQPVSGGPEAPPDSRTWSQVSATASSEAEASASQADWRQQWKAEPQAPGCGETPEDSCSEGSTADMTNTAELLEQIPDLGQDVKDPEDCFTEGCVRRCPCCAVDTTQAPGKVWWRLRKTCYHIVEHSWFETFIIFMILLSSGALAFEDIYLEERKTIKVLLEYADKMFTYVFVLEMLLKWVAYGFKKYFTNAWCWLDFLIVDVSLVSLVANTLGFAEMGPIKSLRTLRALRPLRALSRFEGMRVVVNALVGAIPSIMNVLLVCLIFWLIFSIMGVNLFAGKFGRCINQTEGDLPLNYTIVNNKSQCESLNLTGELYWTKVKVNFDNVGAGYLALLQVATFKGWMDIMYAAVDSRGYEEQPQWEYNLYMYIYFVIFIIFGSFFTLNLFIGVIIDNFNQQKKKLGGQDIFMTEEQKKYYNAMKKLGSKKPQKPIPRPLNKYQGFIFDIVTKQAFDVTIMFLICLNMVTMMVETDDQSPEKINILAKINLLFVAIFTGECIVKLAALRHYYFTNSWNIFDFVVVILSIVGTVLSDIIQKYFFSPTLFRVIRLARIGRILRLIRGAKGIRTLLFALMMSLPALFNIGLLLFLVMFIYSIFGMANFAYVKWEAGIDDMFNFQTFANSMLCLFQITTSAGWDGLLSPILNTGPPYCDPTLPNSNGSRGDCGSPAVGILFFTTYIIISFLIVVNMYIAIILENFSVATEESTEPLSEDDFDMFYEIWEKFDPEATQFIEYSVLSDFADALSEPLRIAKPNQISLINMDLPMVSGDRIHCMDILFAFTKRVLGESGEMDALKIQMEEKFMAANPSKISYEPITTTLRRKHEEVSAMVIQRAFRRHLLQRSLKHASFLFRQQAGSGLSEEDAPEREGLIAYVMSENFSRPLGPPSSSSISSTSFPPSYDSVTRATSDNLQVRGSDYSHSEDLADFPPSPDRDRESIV
Description: For the purpose of assessing risk of arrhythmogenesis of the compound of the present invention, effects of the compound of the present invention on Na^+ current (INa), which plays an important role in the depolarization process of myocardium, was studied using HEK cells expressing Voltage gated sodium channel (Nav 1.5 channel) encoded by SCN5A gene. A cell is retained at a membrane potential of −100 mV by the whole cell patch clamp method using an automated patch clamp system (QPatch; Sophion Bioscience A/S), then INa induced by depolarization stimulation at −10 mV for 20 milliseconds, was recorded. […] From the obtained INa, an absolute value of the maximum peak current was measured based on the current value at the resting membrane potential using analysis software (QPatch Assay software; Sophion Bioscience A/S). The maximum peak current at the time of the application of the compound of the present invention with respect to the maximum peak current at the time of the application of the vehicle was further calculated to evaluate the influence of the compound of the present invention on INa.

[8] = compound 0.5 μmol/L, human liver microsomes 0.5 mg protein/mL, NADPH, 37° C., 30 minutes, amount at 0 minutes defined as 100%
[9] = human, 30 min, 0.5 μmol/L, pH 7.4

CN1C(=O)c2c(O)c(=O)c(C(=O)NCc3cccc(Cl)c3F)cn2N2C[C@@H]3CC[C@@H](C3)[C@@H]12 [II-028]
EC50 (HIV [1]): 1.4 nM | FC mutant strain 1 [2]: 9.9 | FC mutant strain 2 [3]: 15 | half-life ([4]; read-out: elimination half-life (t½) (converted)): 26.7 h | clearance ([4]; read-out: total body clearance (CLtot)): 0.102 mL/min/kg | residual rate (Metabolic stability test; [8]): 74.2

COC[C@@H]1CC[C@H]2N(C)C(=O)c3c(O)c(=O)c(C(=O)NCc4cccc(Cl)c4F)cn3N12 [II-031]
EC50 (HIV [1]): 0.34 nM | FC mutant strain 1 [2]: 10 | FC mutant strain 2 [3]: 6.9 | residual rate (Metabolic stability test; [8]): 86 | EC90 (HIV [5]): 0.73 nM | Potency shift (PS) (HIV [6]): 364 | maximum peak current (INa) with compound with respect to vehicle [7]: 79%

CC(C)N1C(=O)c2c(O)c(=O)c(C(=O)NCc3c(F)cc(F)cc3F)cn2N2[C@H]3COC[C@H]3C[C@@H]12 [II-048]
EC50 (HIV [1]): 0.55 nM | FC mutant strain 1 [2]: 17 | FC mutant strain 2 [3]: 34 | residual rate (Metabolic stability test; [9]): 73.3

CCN1C(=O)c2c(O)c(=O)c(C(=O)NCc3c(F)cc(F)cc3F)cn2N2C[C@@H](C)C[C@@H]12 [II-049]
EC50 (HIV [1]): 0.77 nM | FC mutant strain 1 [2]: 18 | FC mutant strain 2 [3]: 17 | residual rate (Metabolic stability test; [8]): 83.2

CCN1C(=O)c2c(O)c(=O)c(C(=O)NCc3ccc(F)cc3F)cn2N2C[C@@H](C)C[C@@H]12 [II-051]
EC50 (HIV [1]): 0.74 nM | FC mutant strain 1 [2]: 19 | FC mutant strain 2 [3]: 21 | residual rate (Metabolic stability test; [8]): 96 | EC90 (HIV [5]): 3.3 nM | Potency shift (PS) (HIV [6]): 236

CCN1C(=O)c2c(O)c(=O)c(C(=O)NCc3cccc(Cl)c3F)cn2N2[C@H]3COC[C@H]3C[C@@H]12 [II-060]
EC50 (HIV [1]): 0.27 nM | FC mutant strain 1 [2]: 22 | FC mutant strain 2 [3]: 16 | residual rate (Metabolic stability test; [9]): 61.6

CN1C(=O)c2c(O)c(=O)c(C(=O)NCc3cccc(Cl)c3F)cn2N2C[C@@H]3CC[C@@H](O3)[C@@H]12 [II-066]
EC50 (HIV [1]): 0.17 nM | FC mutant strain 1 [2]: 25 | FC mutant strain 2 [3]: 15 | residual rate (Metabolic stability test; [8]): 97.7

CCN1C(=O)c2c(O)c(=O)c(C(=O)NCc3ccc(F)cc3F)cn2N2CC[C@H](C)C[C@@H]12 [II-071]
EC50 (HIV [1]): 0.74 nM | FC mutant strain 1 [2]: 27 | FC mutant strain 2 [3]: 22 | residual rate (Metabolic stability test; [8]): 104

CCN1C(=O)c2c(O)c(=O)c(C(=O)NCc3ccc(F)cc3)cn2N2CCCC[C@@H]12 [II-077]
EC50 (HIV [1]): 1.1 nM | FC mutant strain 1 [2]: 32 | FC mutant strain 2 [3]: 36 | residual rate (Metabolic stability test; [8]): 100

CN1C(=O)c2c(O)c(=O)c(C(=O)NCc3c(F)cc(F)cc3F)cn2N2CCCC[C@@H]12 [II-087]
EC50 (HIV [1]): 1.4 nM | FC mutant strain 1 [2]: 38 | FC mutant strain 2 [3]: 14 | residual rate (Metabolic stability test; [8]): 105

C[C@H]1CC[C@H]2N(C)C(=O)c3c(O)c(=O)c(C(=O)NCc4ccc(Cl)cc4F)cn3N2C1 [II-090]
EC50 (HIV [1]): 3.2 nM | FC mutant strain 1 [2]: 38 | FC mutant strain 2 [3]: 25 | residual rate (Metabolic stability test; [8]): 95.7

CCN1C(=O)c2c(O)c(=O)c(C(=O)NCc3ccc(F)cc3F)cn2N2[C@H](COC)CC[C@@H]12 [II-093]
EC50 (HIV [1]): 0.32 nM | FC mutant strain 1 [2]: 39 | FC mutant strain 2 [3]: 38 | residual rate (Metabolic stability test; [8]): 97.5

CN1C(=O)c2c(O)c(=O)c(C(=O)NCc3cccc(Cl)c3F)cn2N2CCCC[C@@]12C [II-099]
EC50 (HIV [1]): 0.33 nM | FC mutant strain 1 [2]: 44 | FC mutant strain 2 [3]: 26 | residual rate (Metabolic stability test; [8]): 88.6

CCN1C(=O)c2c(O)c(=O)c(C(=O)NCc3ccc(F)cc3F)cn2N2C[C@@H]3CC[C@@H](O3)[C@@H]12 [II-102]
EC50 (HIV [1]): 0.61 nM | FC mutant strain 1 [2]: 47 | FC mutant strain 2 [3]: 45 | residual rate (Metabolic stability test; [8]): 101

CN1C(=O)c2c(O)c(=O)c(C(=O)NCc3cccc(F)c3F)cn2N2CCCC[C@@H]12 [II-104]
EC50 (HIV [1]): 0.69 nM | FC mutant strain 1 [2]: 48 | FC mutant strain 2 [3]: 17 | residual rate (Metabolic stability test; [8]): 96.9

CCN1C(=O)c2c(O)c(=O)c(C(=O)NCc3ccc(F)cc3F)cn2N2C[C@H](COC)C[C@@H]12 [II-105]
EC50 (HIV [1]): 0.58 nM | FC mutant strain 1 [2]: 48 | FC mutant strain 2 [3]: 62 | residual rate (Metabolic stability test; [8]): 84.3

CN1C(=O)c2c(O)c(=O)c(C(=O)NCc3cccc(Cl)c3F)cn2N2CCOC[C@@H]12 [II-108]
EC50 (HIV [1]): 0.61 nM | FC mutant strain 1 [2]: 50 | FC mutant strain 2 [3]: 27 | residual rate (Metabolic stability test; [8]): 97.2

CN1C(=O)c2c(O)c(=O)c(C(=O)NCc3cccc(Cl)c3F)cn2N2[C@H]3COC[C@H]3C[C@@H]12 [II-133]
EC50 (HIV [1]): 0.43 nM | FC mutant strain 1 [2]: 76 | FC mutant strain 2 [3]: 17 | residual rate (Metabolic stability test; [9]): 101

CCN1C(=O)c2c(O)c(=O)c(C(=O)NCc3ccc(F)cc3F)cn2N2[C@H]3COC[C@H]3C[C@@H]12 [II-136]
EC50 (HIV [1]): 0.65 nM | FC mutant strain 1 [2]: 78 | FC mutant strain 2 [3]: 110 | residual rate (Metabolic stability test; [9]): 77.2

CN1C(=O)c2c(O)c(=O)c(C(=O)NCc3cccc(Cl)c3F)cn2N2C[C@@H]3CCC[C@@H](C3)[C@@H]12 [II-153]
EC50 (HIV [1]): 0.74 nM | FC mutant strain 1 [2]: 18 | FC mutant strain 2 [3]: 10 | residual rate (Metabolic stability test; [8]): 75.4

CCN1C(=O)c2c(O)c(=O)c(C(=O)NCc3ccc(F)cc3F)cn2N2C[C@@H]3CCC[C@@H](O3)[C@@H]12 [II-156]
EC50 (HIV [1]): 0.33 nM | FC mutant strain 1 [2]: 26 | FC mutant strain 2 [3]: 16 | residual rate (Metabolic stability test; [8]): 98.6

CCN1C(=O)c2c(O)c(=O)c(C(=O)NCc3ccc(F)nc3F)cn2N2C[C@@H]3CC[C@@H](O3)[C@@H]12 [II-157]
EC50 (HIV [1]): 2.2 nM | FC mutant strain 1 [2]: 36 | FC mutant strain 2 [3]: 25 | residual rate (Metabolic stability test; [8]): 105

Reference: patent US11649236B2, “Polycyclic carbamoylpyridone derivative” (Shionogi & Co., Ltd., priority 2018, dated 2023)
